Reference: US8580534B2, “Method for incorporation of two oxygen atoms into digested peptides using peptidases” (The University of North Dakota, priority 2006, dated 2013)

Columns and labels:
[1] = pH dependency of the carboxyl oxygen exchange reaction (18O incorporation into Ac-Lys-OH); assay type: biochemical; conditions: 10 mM Ac-Lys-OH, 1 μM enzyme, 25° C., 95% H2^18O, pH 4.0-9.0 examined
Method: The initial rate of carboxyl oxygen exchange reaction catalyzed by Lys-C and trypsin was determined by monitoring the rate of ^18O atom incorporation into the carboxyl terminus of Ac-Lys-OH. For the pH studies, a 10 mM solution of Ac-Lys-OH in aqueous buffers at different pHs was incubated with 1 μM Lys-C or trypsin at 25° C. in 95% H2^18O buffered at various pHs. The buffer solutions used were 50 mM citrate at pH 4.0, 5.0 and 6.0 (pH adjusted by addition of NaOH), 50 mM phosphate at pH 7.0 and 8.0 (pH adjusted by addition of NaOH) and 50 mM Tris at pH 9.0 (pH adjusted by addition of HCl). The duration of the reaction was 5 minutes for Lys-C and 20 minutes for trypsin. […] The single ^18O atom incorporated reaction product, Ac-Lys-^18OH, in the reconstituted reaction solution was then quantified by stable isotope dilution tandem mass spectrometry, as described below. […]
(§1) An Agilent 1100 HPLC system (Palo Alto, Calif.) coupled to an API 3000 triple quadrupole mass spectrometer equipped with a TurbolonSpray™ ion source (Applied Biosystems-MDS-Sciex, Foster City, Calif.) was used to quantify Ac-Lys-^18OH. […]
(§2) Amounts of Ac-Lys-^18OH in the reaction mixture were determined from the chromatographic peak area ratios of the analyte over the internal standard, assuming identical ionization efficiencies and identical yields of fragment ions for Ac-Lys-^18OH and [^13C2]Ac-Lys-OH. […]

[2] = amidase activity (hydrolysis of Ac-Lys-NH2 in H2^18O); assay type: biochemical; conditions: 10 mM Ac-Lys-NH2, 25° C., 95% H2^18O, within the pH range examined
Method: The amidase activity of Lys-C and trypsin was measured by monitoring the initial rate of hydrolysis of Ac-Lys-NH2 in H2^18O. Ac-Lys-NH2 (10 mM) was incubated with 0.2 uM Lys-C or 1 uM trypsin at 25° C. in 95% H2^18O at various pHs. The buffer solutions used were the same as described above for the carboxyl oxygen exchange reactions. The duration of the reaction was 5 min for Lys-C and 20 min for trypsin. The single ^18O atom incorporated reaction product, Ac-Lys-^18OH, was quantified after addition of a [^13C2]Ac-Lys-OH internal standard (0.75 μg) by stable isotope dilution tandem mass spectrometry, as described below. All reactions were carried out in triplicate.
as §1
The ion spray voltage and the ion source probe temperature were set at 5 kV and 400° C., respectively. […] The precursor and fragment ions monitored were m/z 191 (Ac-Lys-^18OH+H) and 149 (H-Lys-^18OH+H) for Ac-Lys-^18OH and m/z 191 ([^13C2]Ac-Lys-OH+H) and 147 (H-Lys-^16OH+H) for [^13C2]Ac-Lys-OH, respectively. […]

[3] = steady-state kinetic parameters for the carboxyl oxygen exchange reaction; assay type: biochemical
Method: The steady-state kinetic parameters for the carboxyl oxygen exchange reaction by Lys-C and trypsin were obtained at two different pHs (pH 9.0 and 5.0 for Lys-C and pH 8.0 and 6.0 for trypsin). Ac-Lys-OH (0.0625-10 mM) was incubated with 1 uM Lys-C or trypsin at 30° C. in 95% H2^1 80 buffered at various pHs (described above). The total volume of the reaction was 20 μL. The duration of the reaction was 10 min for Lys-C and 20 min for trypsin. The single ^18O atom incorporated reaction product, Ac-Lys-180H, was quantified after addition of a [^13C2]Ac-Lys-OH internal standard (0.75 μg) by stable isotope dilution tandem mass spectrometry, as described below. All reactions were carried out in triplicate.
Km and Vmax values were calculated by fitting the Michaelis-Menten equation to the experimental data using SigmaPlot 9.01 (Systat Software, Richmond, Calif.). Kcat values were calculated by dividing the obtained Vmax values by the total enzyme amount added to the system.
An Agilent 1100 HPLC system (Palo Alto, Calif.) coupled to an API 3000 triple quadrupole mass spectrometer equipped with a TurbolonSpray™ ion source (Applied Biosystems-MDS-Sciex, Foster City, Calif.) was used to quantify Ac-Lys-^18OH. The reconstituted reaction mixtures were injected (typically 5 μL) onto a reversed-phase C18 column (2.1×150 mm, 5 μm, 300 Å, Vydac) equilibrated with 5% acetonitrile/0.1% HFBA (v/v) in water and then eluted with the same solvent at a flow rate of 200 μL/min. A switching valve (Valco Instrument, Houston, Tex.) was placed between the HPLC system and the mass spectrometer to divert non-volatile salt fractions from the mass spectrometer at the beginning of the run. The switching valve was switched in-line with the mass spectrometer at 3 minutes after the injection. The elution time of Ac-Lys-^18OH was 3.8 minutes.
The ion spray voltage and the ion source probe temperature were set at 5 kV and 400° C., respectively. Nitrogen was used both as a nebulizer and as an auxiliary gas, at flow rates of 3 and 8 L/min, respectively. A multiple reaction monitoring mode was used for monitoring Ac-Lys-^18OH and [^13C2]Ac-Lys-OH. The precursor and fragment ions monitored were m/z 191 (Ac-Lys-^18OH+H) and 149 (H-Lys-^18OH+H) for Ac-Lys-^18OH and m/z 191 ([^13C2]Ac-Lys-OH+H) and 147 (H-Lys-^16OH+H) for [^13C2]Ac-Lys-OH, respectively. […]
as §2, with “[^13C2]Ac-Lys-OH. The experimentally determined amounts of Ac-Lys-^18OH were corrected upward 5%, accounting for 60 incorporation resulting from the H2^18O solvent having a 5% H2^16O content.” for “[^13C2]Ac-Lys-OH.”

[4] = tested on: apomyoglobin peptide that has a lysine residue at the C-terminus (Lys-peptide); assay: 18O atom incorporation into apomyoglobin Lys-peptides by LC/MS; assay type: biochemical, Horse
Method: (§3) We semi-quantitatively measured the rate of ^18O atom incorporation into Lys-C and tryptic peptides derived from apomyoglobin. This was done to test whether the increased rate of carboxyl oxygen exchange noted for the reaction of Ac-Lys-OH at acidic pH could be generalized to peptide substrates. Apomyoglobin (34 μg) was digested for 16 hours at 25° C. with either 1 μg of Lys-C or trypsin in 100 mM ammonium bicarbonate in H2^16O solvent. The digestion was stopped by adding formic acid to a final concentration of 1% and by boiling the reaction mixture for 2 minutes. The resulting Lys-C and tryptic peptides were lyophilized and used in the following experiments.
(§4) The rate of the carboxyl oxygen exchange reaction into the Lys-C and tryptic peptides by Lys-C and trypsin, respectively, were semi-quantitatively measured by looking at the rate of ^18O atom incorporation into the carboxyl termini of the peptides by LC/MS (described below). The Lys-C and tryptic digests (both 1.5 μg) were incubated with Lys-C and trypsin (both 0.03 μg), respectively, in H2^18O at 30° C. buffered (see above) at pH 5.0 or 9.0 for Lys-C and pH 6.0 or 8.0 for trypsin for various reaction times (1 minute-60 minutes). The total reaction volume was 50 μL. Aliquots (5 μL) of the reaction mixtures were taken after 1, 5, 10, and 60 minutes. The reactions were stopped by mixing with 40 μL of 10% formic acid and by heating at 95° C. for 2 minutes. After the heat treatment, the solvents were evaporated in the speed-vac concentrator and the samples were stored at −20° C. until use.
The stored ^18O labeled peptide mixtures were reconstituted in 20 μL of aqueous 0.1% trifluoroacetic acid (TFA), desalted by a C18 ZipTip as per the manufacturer's instructions (Millipore, Bedford, Mass.), and subjected to LC/MS analysis using an UltiMate nano HPLC system (Dionex, San Francisco, Calif.) interfaced to a QStar quadrupole/time of flight mass spectrometer (Applied Biosystems-MDS Sciex, Foster City, Calif.), as described previously. Briefly, the peptide mixture (5 μl) was injected directly into a reverse-phase analytical column (0.075×60 mm, New Objective Inc., Woburn, Mass.) packed with Jupiter C18 media (Phenomenex, Torrance, Calif.), washed with 2% acetonitrile/0.1% formic acid (v/v) in water for 15 minutes at flow rate of 2 μL/min. The peptides were then eluted with a 40 minute linear gradient of 2% acetonitrile/0.1% formic acid (v/v) in water to 40% acetonitrile/0.1% formic acid (v/v) in water at a flow rate of 200 nL/min. The column effluent was directed on-line to a nano-electrospray ion source. The total ion current was obtained in the mass range of m/z 400-1600 in the positive ion mode. The electrospray and orifice voltages were 2050V and 65V, respectively.

[5] = tested on: peptide that has an arginine residue at the C-terminus (Arg-peptide); assay: 18O atom incorporation into apomyoglobin Arg-peptides by LC/MS; assay type: biochemical, Horse; conditions: for time to complete incorporation of two ^18O atoms: H2^18O
Method: as §3, §4
The stored ^18O labeled peptide mixtures were reconstituted in 20 μL of aqueous 0.1% trifluoroacetic acid (TFA), desalted by a C18 ZipTip as per the manufacturer's instructions (Millipore, Bedford, Mass.), and subjected to LC/MS analysis using an UltiMate nano HPLC system (Dionex, San Francisco, Calif.) interfaced to a QStar quadrupole/time of flight mass spectrometer (Applied Biosystems-MDS Sciex, Foster City, Calif.), as described previously. […]

trypsin
optimum pH of the carboxyl oxygen exchange reaction [1]: 6.0 pH
most favorable pH for the amidase activity [2]: 9 pH
kcat/Km of carboxyl oxygen exchange, fold lower than reported kcat/Km for amide hydrolysis ([3]; pH 6.0 versus N-benzoyl-L-lysine amide hydrolysis at pH 8.0): 5.1 fold
Km, fold smaller at acidic than at alkaline pH ([3]; pH 6.0 versus pH 8.0): about 3 fold
kcat, fold higher at acidic than at alkaline pH ([3]; pH 6.0 versus pH 8.0): about 5 fold
rate of the carboxyl oxygen exchange ([3]; pH 9.0): too low
time to complete incorporation of two ^18O atoms ([4]; pH 6.0, 30° C., H2^18O): ≤ 10 min
dominant result after 1 minute of incubation ([4]; pH 6.0 and 8.0): incorporation of only one ^18O atom
dominant result of ^18O incorporation ([4]; pH 8.0, 30° C., H2^18O): incorporation of only one ^18O atom
time to complete incorporation of two ^18O atoms ([4]; pH 8.0, 30° C., H2^18O): > 60 min
dominant peak after 1 minute of incubation ([5]; both pH 6.0 and 8.0): two ^18O atoms
time to complete incorporation of two ^18O atoms ([5]; pH 6.0, 30° C.): ≤ 10 min
time to complete incorporation of two ^18O atoms ([5]; pH 8.0, 30° C.): 60 min
